US7880007B2, “Bicyclic substituted phenyl piperidine modulators of muscarinic receptors” (Vertex Pharmaceuticals Incorporated, priority 2004, dated 2011)

Experiments:
Format in all cases: cell-based
M2 muscarinic receptor = target: T1, M2 muscarinic receptor (Homo sapiens, UniProt P08172); assay: Functional mobilization of intracellular calcium (FLIPR), M2-CHO cells; details: for Emax: 100% efficacy = maximum response obtained with the Carbachol control; for M2 Activity: M2-CHO cells, calcium mobilization (FLIPR)
T1 construct: expressed in transfected cells; host or cells: CHO (M2-CHO)
T1 sequence (P08172 1-466): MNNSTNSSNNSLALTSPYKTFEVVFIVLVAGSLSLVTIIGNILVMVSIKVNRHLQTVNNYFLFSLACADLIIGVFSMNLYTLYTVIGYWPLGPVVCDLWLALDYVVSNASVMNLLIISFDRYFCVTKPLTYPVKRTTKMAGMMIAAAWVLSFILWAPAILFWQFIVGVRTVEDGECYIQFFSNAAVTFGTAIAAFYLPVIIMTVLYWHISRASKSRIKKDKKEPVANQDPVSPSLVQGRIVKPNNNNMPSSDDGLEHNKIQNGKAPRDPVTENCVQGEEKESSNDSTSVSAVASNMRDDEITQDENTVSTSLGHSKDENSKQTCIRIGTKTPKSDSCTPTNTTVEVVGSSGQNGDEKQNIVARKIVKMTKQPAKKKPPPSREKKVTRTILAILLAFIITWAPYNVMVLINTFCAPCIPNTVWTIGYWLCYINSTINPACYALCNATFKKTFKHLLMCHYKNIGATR
Method: (§1) Functional Mobilization of Intracellular Calcium to Determine Muscarinic Receptor Activity:
(§2) CHO cells expressing muscarinic receptors (M1 to M5) are grown as monolayers in tissue culture flasks at 37° C. in a humidified atmosphere containing 5% CO2 and passaged every 3-5 days. The growth media is Dulbecco's modified eagles medium (DMEM, Gibco Cat #12430-054), containing 25 mM Hepes and supplemented with Fetal Bovine Serum (Hyclone, cat #SH30071.03), 0.1 mM of MEM non-essential amino acids (GIBCO, Cat #11140-050), 1 mM MEM Sodium Pyruvate (GIBCO Cat #11360-070) and 100 units/ml of Penicillin G and 100 μg/ml of Streptomycin (GIBCO Cat #15140-122). The recombinant muscarinic receptor cell lines are grown under antibiotic pressure with media containing 25 μg/ml zeocin and 500 μg/ml G418 (M1-CHO), 4 μg/ml puromycin, 50 μg/ml zeocin and 2.5 μg/ml blasticidin (M2 and M4-CHO) or 50 μg/ml zeocin and 4 μg/ml puromycin (M3 and M5-CHO).
(§3) Cells are harvested at 80-90% confluence using Versene (GIBCO Cat #15040-066), collected by centrifugation and seeded 18-24 hrs prior to running the calcium assay at a density of 5,000-10,000 cells/well in […], clear-bottomed 384-well plates (BD Biocoat, poly-D-lysine, Cat #356663). The day of the experiment, the cells are washed with a plate washer (Bioteck Instruments, ELX 405) using bath 1 buffer (140-mM NaCl, 4.5-mM KCl, 2-mM CaCl2, 1-mM MgCl2, 10-mM Hepes-Na, 10-mM Glucose, pH 7.4, with NaOH) containing 1 mM Probenecid. Next, the calcium dye Fluo-3 (25 μl/well of Fluo-3 AM at 4 μM, Molecular Probes F-1241, in Bath 1 buffer containing 1 mM Probenecid) is added to the 25 μl of Bath 1 remaining in each well after the plate wash and the dye is loaded at 37° C. in the tissue culture incubator for 60-90 min. The fluorescent dye is removed using the plate washer with Bath 1 containing 1 mM Probenecid, leaving 25 μl/well of this solution after the wash. Alternatively, cells can be loaded with the calcium indicator from Molecular Devices (Calcium 3 Assay Reagents, Cat #R7181) adding 5 μl of a 5× solution dye in Bath 1 containing 1 mM Probenecid (10 ml per dye flask cat #R7182 to generate a solution 20×) to 20 μl of the same buffer. After loading for 60 min, the experiment can be run without having to remove the dye.
(§4) Compounds are prepared at a 2× fold concentration in a 96-well plate (round bottom, Costar Corning cat #3656), by reconstituting the pre-spotted compounds in bath 1 containing 1 mM probenecid. The final concentration DMSO is 0.5%, and the amount of DMSO is normalized across the assay plate. To determine an agonist action of the compounds on muscarinic receptors, the reconstituted compounds are added (25 μl compound/well) to the cell assay plate (containing 25 μl/well) using the multi-channel robotic system of the FLIPR 3 Instrument (Molecular Devices, Sunnyvale, Calif.). To determine a functional inhibitory action of the compounds on muscarinic receptors, the reconstituted compounds are added (25 μl compound/well) to the assay plate and pre-incubated for 15 min prior to adding 25 μl of Carbachol at 3× the EC80 for each muscarinic subtype. Alternatively, the compounds can be co-applied simultaneously with the agonist. In both assay modes, the fluorescence is recorded for 60 sec (excitation wavelength is […] and emission wavelength 540 nm) using the FLIPR 3 instrument.
(§5) The potency, efficacy and selectivity of the muscarinic compounds were evaluated by screening the compound activity across the whole family (M1 to M5 cells). Compounds were also screened for activity on other proteins such as other GPCRs and ion channels to determine selectivity on M4 receptors.
(§6) Examples of activities and efficacies of the muscarinic compounds of formulae (I, Ia, Ib, and II) on modulating M1, M2, M3 and M4 receptors are shown below in Table 3. […]

M1 muscarinic receptor = target: T2, M1 muscarinic receptor (Homo sapiens, UniProt P11229); assay: Functional mobilization of intracellular calcium (FLIPR), M1-CHO cells; details: for Emax: 100% efficacy = maximum response obtained with the Carbachol control; for M1 Activity: M1-CHO cells, calcium mobilization (FLIPR)
T2 construct: expressed in transfected cells; host or cells: CHO (M1-CHO)
T2 sequence (P11229 1-460): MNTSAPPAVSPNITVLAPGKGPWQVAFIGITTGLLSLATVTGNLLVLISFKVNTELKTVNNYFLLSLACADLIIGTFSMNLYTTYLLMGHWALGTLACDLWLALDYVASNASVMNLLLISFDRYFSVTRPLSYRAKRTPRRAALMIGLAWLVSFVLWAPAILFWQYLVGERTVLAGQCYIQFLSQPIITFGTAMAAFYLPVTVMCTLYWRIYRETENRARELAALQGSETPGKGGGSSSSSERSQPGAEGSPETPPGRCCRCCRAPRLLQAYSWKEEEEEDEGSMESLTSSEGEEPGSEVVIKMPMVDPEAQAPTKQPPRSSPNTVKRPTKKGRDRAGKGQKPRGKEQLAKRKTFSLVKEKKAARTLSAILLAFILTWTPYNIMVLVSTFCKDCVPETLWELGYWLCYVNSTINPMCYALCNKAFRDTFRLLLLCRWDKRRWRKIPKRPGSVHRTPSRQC
Method: as §1, §2, §3, §4, §5, §6

M4 muscarinic receptor = target: T3, M4 muscarinic receptor (Homo sapiens, UniProt P08173); assay: Functional mobilization of intracellular calcium (FLIPR), M4-CHO cells; details: for Emax: 100% efficacy = maximum response obtained with the Carbachol control; for M4 Activity: M4-CHO cells, calcium mobilization (FLIPR)
T3 construct: expressed in transfected cells; host or cells: CHO (M4-CHO)
T3 sequence (P08173 1-479): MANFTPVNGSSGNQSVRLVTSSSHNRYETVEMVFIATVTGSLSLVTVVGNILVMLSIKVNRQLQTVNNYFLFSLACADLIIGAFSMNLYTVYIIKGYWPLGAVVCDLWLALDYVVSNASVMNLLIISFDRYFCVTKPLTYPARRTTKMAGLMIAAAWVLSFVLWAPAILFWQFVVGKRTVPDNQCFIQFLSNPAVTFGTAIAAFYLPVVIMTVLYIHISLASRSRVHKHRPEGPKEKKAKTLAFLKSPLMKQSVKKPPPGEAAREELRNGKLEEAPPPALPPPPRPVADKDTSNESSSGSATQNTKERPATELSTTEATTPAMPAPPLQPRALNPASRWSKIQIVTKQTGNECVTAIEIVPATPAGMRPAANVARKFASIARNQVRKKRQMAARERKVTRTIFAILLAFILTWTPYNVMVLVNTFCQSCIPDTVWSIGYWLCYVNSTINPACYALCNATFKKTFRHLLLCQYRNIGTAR
Method: as §1, §2, §3, §4, §5, §6

Compound | Emax (M2 muscarinic receptor) | M2 Activity (M2 muscarinic receptor) | Emax (M1 muscarinic receptor) | M1 Activity (M1 muscarinic receptor) | Emax (M4 muscarinic receptor) | M4 Activity (M4 muscarinic receptor)
CCOC(=O)N1C2CCC1CC(CN1CCC(c3ccccc3OC)CC1)C2 (stereo not drawn) [Compound 20] | < 25% | + (activity was measured to be greater than 5.0 μM) | 25 to 100% | +++ (activity was measured to be less than 1.0 μM) | 25 to 100% | +++ (activity was measured to be less than 1.0 μM)
COc1ccccc1C1CCN(CC2CC3CCC(C3)C2)CC1 (stereo not drawn) [Compound 28] | < 25% | + (activity was measured to be greater than 5.0 μM) | < 25% | + (activity was measured to be greater than 5.0 μM) | < 25% | + (activity was measured to be greater than 5.0 μM)
CCOC(=O)N1CCC(N2CCC(OC)(c3cc(Cl)ccc3OC)CC2)CC1 [Compound 55] | < 25% | + (activity was measured to be greater than 5.0 μM) | 25 to 100% | +++ (activity was measured to be less than 1.0 μM) | 25 to 100% | +++ (activity was measured to be less than 1.0 μM)
COc1ccccc1C1CCN(CC2CCC3CCC2C3)CC1 (stereo not drawn) [Compound 61] | < 25% | + (activity was measured to be greater than 5.0 μM) | < 25% | + (activity was measured to be greater than 5.0 μM) | 25 to 100% | ++ (activity was measured to be from 1.0 μM to 5.0 μM)
COc1ccc(Cl)cc1C1(O)CCN(C2CC3CCC2C3)CC1 (stereo not drawn) [Compound 63] | < 25% | + (activity was measured to be greater than 5.0 μM) | < 25% | + (activity was measured to be greater than 5.0 μM) | 25 to 100% | + (activity was measured to be greater than 5.0 μM)
COc1ccc(NC(C)=O)cc1C1CCN(C2C[C@H]3CC[C@H](C2)C3)CC1 (stereo partly drawn) [Compound 75] | < 25% | + (activity was measured to be greater than 5.0 μM) | < 25% | + (activity was measured to be greater than 5.0 μM) | 25 to 100% | ++ (activity was measured to be from 1.0 μM to 5.0 μM)
COc1ccc(Cl)cc1C1(OC)CCN(C2CCC3CCC2C3)CC1 (stereo not drawn) [Compound 80] | < 25% | ++ (activity was measured to be from 1.0 μM to 5.0 μM) | 25 to 100% | ++ (activity was measured to be from 1.0 μM to 5.0 μM) | 25 to 100% | +++ (activity was measured to be less than 1.0 μM)
Cc1ccc(F)cc1C1CCN([C@H]2CC[C@H]3CC[C@H]2C3)CC1 [Compound 81] | 25 to 100% | + (activity was measured to be greater than 5.0 μM) | 25 to 100% | + (activity was measured to be greater than 5.0 μM) | 25 to 100% | ++ (activity was measured to be from 1.0 μM to 5.0 μM)
COc1ccc(Cl)cc1C1CCN(CC2CCCCC2)CC1 [Compound 91] | < 25% | + (activity was measured to be greater than 5.0 μM) | < 25% | ++ (activity was measured to be from 1.0 μM to 5.0 μM) | 25 to 100% | ++ (activity was measured to be from 1.0 μM to 5.0 μM)
CCOC(=O)N1C2CCC1CC(N1CCC(O)(c3cc(F)ccc3C)CC1)C2 (stereo not drawn) [Compound 95] | < 25% | + (activity was measured to be greater than 5.0 μM) | 25 to 100% | +++ (activity was measured to be less than 1.0 μM) | 25 to 100% | +++ (activity was measured to be less than 1.0 μM)
Cc1ccc(Cl)cc1C1CCN(C2CC[C@H]3CC[C@H]2C3)CC1 (stereo partly drawn) [Compound 96] | 25 to 100% | ++ (activity was measured to be from 1.0 μM to 5.0 μM) | 25 to 100% | +++ (activity was measured to be less than 1.0 μM) | 25 to 100% | +++ (activity was measured to be less than 1.0 μM)
COc1ccc(Cl)cc1C1(O)CCN(C2CCCCC2)CC1 [Compound 99] | < 25% | + (activity was measured to be greater than 5.0 μM) | < 25% | + (activity was measured to be greater than 5.0 μM) | 25 to 100% | ++ (activity was measured to be from 1.0 μM to 5.0 μM)
COc1ccc(Cl)cc1C1(OC)CCN(C2CCCCCC2)CC1 [Compound 101] | < 25% | + (activity was measured to be greater than 5.0 μM) | 25 to 100% | ++ (activity was measured to be from 1.0 μM to 5.0 μM) | 25 to 100% | +++ (activity was measured to be less than 1.0 μM)
